Literature values in patent publication US11441198B2 (priority 2016, dated 2022).

Key:
influenza virus = details: double-blind randomized placebo-controlled trial

| Compound | symptoms (influenza virus) | antiviral activity against influenza viruses (influenza viruses) |
| --- | --- | --- |
| CC(=O)Oc1ccccc1C(=O)Nc1ncc([N+](=O)[O-])s1 [Nitazoxanide] | associated with improvement in symptoms | – |
| COc1c(C)c2c(c(O)c1C/C=C(\C)CCC(=O)O)C(=O)OC2 [mycophenolic acid] | – | has antiviral activity |
